PubChem BioAssay (NCI)
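Tested at 5 concentrations; 48 h exposure; 96-well plates; endpoints linearly interpolated, else capped at highest concentration. TGI denotes the concentration required for complete inhibition of growth.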

Assays:
Assay in all cases: inhibition of tumour cell growth, NCI panel, 48 h
SF-268 CNS = system: SF-268 CNS
LOX IMVI melanoma = system: LOX IMVI melanoma
HT29 colon = system: HT29 colon
RXF 393 renal = system: RXF 393 renal
K-562 leukemia = system: K-562 leukemia
COLO 205 colon = system: COLO 205 colon
HCT-116 colon = system: HCT-116 colon
HOP-62 NSCLC = system: HOP-62 NSCLC
UO-31 renal = system: UO-31 renal
OVCAR-5 ovarian = system: OVCAR-5 ovarian
MALME-3M melanoma = system: MALME-3M melanoma
NCI-H23 lung = system: NCI-H23 lung
NCI-H226 lung = system: NCI-H226 lung
SN12C renal = system: SN12C renal
SK-MEL-2 melanoma = system: SK-MEL-2 melanoma
PC-3 prostate = system: PC-3 prostate
HOP-92 NSCLC = system: HOP-92 NSCLC
BT-549 breast = system: BT-549 breast
EKVX NSCLC = system: EKVX NSCLC
NCI-H460 lung = system: NCI-H460 lung
SNB-75 CNS = system: SNB-75 CNS
M14 melanoma = system: M14 melanoma
A498 renal = system: A498 renal
SF-539 CNS = system: SF-539 CNS
OVCAR-3 ovarian = system: OVCAR-3 ovarian
MCF7 breast = system: MCF7 breast
A549 NSCLC = system: A549 NSCLC
U251 CNS = system: U251 CNS
SK-OV-3 ovarian = system: SK-OV-3 ovarian
786-0 renal = system: 786-0 renal
MDA-N = system: MDA-N
HS 578T breast = system: HS 578T breast
SNB-19 CNS = system: SNB-19 CNS
SF-295 CNS = system: SF-295 CNS
T-47D breast = system: T-47D breast
MDA-MB-435 = system: MDA-MB-435
UACC-257 melanoma = system: UACC-257 melanoma
HCT-15 colon = system: HCT-15 colon
SK-MEL-28 melanoma = system: SK-MEL-28 melanoma
ACHN renal = system: ACHN renal
KM12 colon = system: KM12 colon
CAKI-1 renal = system: CAKI-1 renal
SR leukemia = system: SR leukemia
UACC-62 melanoma = system: UACC-62 melanoma
TK-10 renal = system: TK-10 renal
SK-MEL-5 melanoma = system: SK-MEL-5 melanoma
DU-145 prostate = system: DU-145 prostate
HCC-2998 colon = system: HCC-2998 colon
RPMI-8226 leukemia = system: RPMI-8226 leukemia
OVCAR-8 ovarian = system: OVCAR-8 ovarian
MDA-MB-231 breast = system: MDA-MB-231 breast
CCRF-CEM leukemia = system: CCRF-CEM leukemia
NCI-H522 lung = system: NCI-H522 lung
SW-620 colon = system: SW-620 colon
MOLT-4 leukemia = system: MOLT-4 leukemia
IGROV1 ovarian = system: IGROV1 ovarian
NCI/ADR-RES ovarian = system: NCI/ADR-RES ovarian
OVCAR-4 ovarian = system: OVCAR-4 ovarian

CCN(CC)C1Oc2cc3c(cc2C(c2ccc(OC)cc2)C1C)OCO3 (stereo unspecified)
TGI (SF-268 CNS): 50.1 µM
TGI (LOX IMVI melanoma): 34.1 µM
TGI (HT29 colon): 34.7 µM
TGI (RXF 393 renal): 40.6 µM
TGI (K-562 leukemia): 45.9 µM
TGI (COLO 205 colon): 34.5 µM
TGI (HCT-116 colon): 29.2 µM
TGI (HOP-62 NSCLC): 54.9 µM
TGI (UO-31 renal): 64.9 µM
TGI (OVCAR-5 ovarian): 58.9 µM
TGI (MALME-3M melanoma): 37.3 µM
TGI (NCI-H23 lung): 51 µM
TGI (NCI-H226 lung): 54.7 µM
TGI (SN12C renal): 63 µM
TGI (SK-MEL-2 melanoma): 38.6 µM
TGI (PC-3 prostate): 72.6 µM
TGI (HOP-92 NSCLC): 57.9 µM
TGI (BT-549 breast): 67 µM
TGI (EKVX NSCLC): 49.9 µM
TGI (NCI-H460 lung): 37.2 µM
TGI (SNB-75 CNS): 59.7 µM
TGI (M14 melanoma): 51.4 µM
TGI (A498 renal): 48.2 µM
TGI (SF-539 CNS): 40.1 µM
TGI (OVCAR-3 ovarian): 37.1 µM
TGI (MCF7 breast): 47.7 µM
TGI (A549 NSCLC): 74 µM
TGI (U251 CNS): 54.9 µM
TGI (SK-OV-3 ovarian): 97.4 µM
TGI (786-0 renal): 48 µM
TGI (MDA-N): 65.5 µM
TGI (HS 578T breast): 48.2 µM
TGI (SNB-19 CNS): 83.7 µM
TGI (SF-295 CNS): 63.1 µM
TGI (T-47D breast): 77 µM
TGI (MDA-MB-435): 39.1 µM
TGI (UACC-257 melanoma): 35.1 µM
TGI (HCT-15 colon): 98.1 µM
TGI (SK-MEL-28 melanoma): 50.8 µM
TGI (ACHN renal): 59.6 µM
TGI (KM12 colon): 53.2 µM
TGI (CAKI-1 renal): 76.4 µM
TGI (SR leukemia): 27.6 µM
TGI (UACC-62 melanoma): 42.1 µM
TGI (TK-10 renal): 56.2 µM
TGI (SK-MEL-5 melanoma): 31.9 µM
TGI (DU-145 prostate): 76.4 µM
TGI (HCC-2998 colon): 35.3 µM
TGI (RPMI-8226 leukemia): 38 µM
TGI (OVCAR-8 ovarian): 44.9 µM
TGI (MDA-MB-231 breast): 49.2 µM
TGI (CCRF-CEM leukemia): 34 µM
TGI (NCI-H522 lung): 35.8 µM
TGI (SW-620 colon): > 100 µM
TGI (MOLT-4 leukemia): 41.8 µM
TGI (IGROV1 ovarian): 86.9 µM

ClC1(Cl)C(c2ccccc2)C1c1ccccc1 (stereo unspecified)
TGI (SF-268 CNS): > 100 µM
TGI (LOX IMVI melanoma): 93 µM
TGI (RXF 393 renal): 37.8 µM
TGI (K-562 leukemia): > 100 µM
TGI (COLO 205 colon): > 100 µM
TGI (NCI/ADR-RES ovarian): 30.8 µM
TGI (HCT-116 colon): > 100 µM
TGI (HOP-62 NSCLC): > 100 µM
TGI (UO-31 renal): > 100 µM
TGI (OVCAR-5 ovarian): > 100 µM
TGI (NCI-H23 lung): 76.8 µM
TGI (NCI-H226 lung): 33.9 µM
TGI (SN12C renal): > 100 µM
TGI (SK-MEL-2 melanoma): 40.2 µM
TGI (PC-3 prostate): > 100 µM
TGI (BT-549 breast): 77.4 µM
TGI (EKVX NSCLC): 53.1 µM
TGI (NCI-H460 lung): 51.2 µM
TGI (SNB-75 CNS): > 100 µM
TGI (M14 melanoma): 90.7 µM
TGI (OVCAR-4 ovarian): > 100 µM
TGI (A498 renal): > 100 µM
TGI (OVCAR-3 ovarian): 87.8 µM
TGI (MCF7 breast): > 100 µM
TGI (A549 NSCLC): > 100 µM
TGI (U251 CNS): > 100 µM
TGI (SK-OV-3 ovarian): 55.7 µM
TGI (786-0 renal): > 100 µM
TGI (MDA-N): 35.2 µM
TGI (HS 578T breast): > 100 µM
TGI (SNB-19 CNS): > 100 µM
TGI (SF-295 CNS): 82.3 µM
TGI (T-47D breast): > 100 µM
TGI (MDA-MB-435): 68.6 µM
TGI (UACC-257 melanoma): > 100 µM
TGI (HCT-15 colon): > 100 µM
TGI (SK-MEL-28 melanoma): > 100 µM
TGI (ACHN renal): 89.7 µM
TGI (KM12 colon): > 100 µM
TGI (CAKI-1 renal): 75.9 µM
TGI (SR leukemia): 55.4 µM
TGI (UACC-62 melanoma): > 100 µM
TGI (TK-10 renal): > 100 µM
TGI (DU-145 prostate): > 100 µM
TGI (HCC-2998 colon): 30 µM
TGI (RPMI-8226 leukemia): 79.8 µM
TGI (OVCAR-8 ovarian): 77.4 µM
TGI (MDA-MB-231 breast): > 100 µM
TGI (SW-620 colon): > 100 µM
TGI (MOLT-4 leukemia): > 100 µM
